# Experimental data from PMC10774165, “Correlating sugar transporter expression and activities to identify transporters for an orphan sugar substrate” (Applied Microbiology and Biotechnology, 2024).
# Legend:
# Format in all cases: cell-based
# [1] = molecular target: T1, NCU00809 (Neurospora crassa, UniProt Q7SEC5); assay: growth of transporter-expressing yeast on the sugar; conditions: S. cerevisiae EBY.VW4000
# T1 construct: full-length cDNA in p426H7, expressed in S. cerevisiae EBY.VW4000 with K. lactis LAC4
# [2] = molecular target: T2, NCU08052 (Neurospora crassa, UniProt Q7SGN1); assay: glycerol uptake by N. crassa wild type versus deletion mutant; conditions: after induction in arabinose, 20 min
# T2 construct: native protein in N. crassa mycelium, wild type versus deletion mutant
# [3] = molecular target: T3, CDT-1 (Neurospora crassa, UniProt Q7SCU1); assay: growth of transporter-expressing yeast on the sugar as sole carbon source; conditions: 0.2% or 2% lactose, 30 °C, 3 days, coexpressed K. lactis Lac4; uptake also reduced in N. crassa deletion mutant
# T3 construct: full-length cDNA in p426H7, expressed in S. cerevisiae EBY.VW4000 (with K. lactis LAC4 for lactose)
# [4] = molecular target: T1, NCU00809; assay: as above; conditions: 0.2% or 2% lactose, 30 °C, 3 days, coexpressed K. lactis Lac4; uptake also reduced in N. crassa deletion mutant
# [5] = molecular target: T4, CDT-2 (Neurospora crassa, UniProt Q7SD12); assay: as above; conditions: 0.2% or 2% lactose, 30 °C, 3 days, coexpressed K. lactis Lac4; uptake also reduced in N. crassa deletion mutant
# T4 construct: full-length cDNA in p426H7, expressed in S. cerevisiae EBY.VW4000 with K. lactis LAC4
# T4 sequence (Q7SD12 entry or part of it): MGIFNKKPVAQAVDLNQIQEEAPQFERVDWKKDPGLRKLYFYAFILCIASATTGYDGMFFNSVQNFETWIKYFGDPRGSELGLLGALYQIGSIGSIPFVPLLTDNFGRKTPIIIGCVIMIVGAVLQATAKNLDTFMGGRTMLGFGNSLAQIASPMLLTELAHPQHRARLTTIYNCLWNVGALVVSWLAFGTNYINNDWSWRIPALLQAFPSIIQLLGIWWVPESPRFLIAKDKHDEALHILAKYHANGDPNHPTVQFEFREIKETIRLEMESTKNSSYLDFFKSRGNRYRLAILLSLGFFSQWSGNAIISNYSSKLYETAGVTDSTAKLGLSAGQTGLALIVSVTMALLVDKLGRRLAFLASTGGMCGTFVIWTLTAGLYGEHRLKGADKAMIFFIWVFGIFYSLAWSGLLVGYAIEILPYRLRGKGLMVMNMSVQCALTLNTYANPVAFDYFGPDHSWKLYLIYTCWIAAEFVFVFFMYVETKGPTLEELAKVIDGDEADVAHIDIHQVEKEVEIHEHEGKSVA
# T1 sequence (Q7SEC5 1-547): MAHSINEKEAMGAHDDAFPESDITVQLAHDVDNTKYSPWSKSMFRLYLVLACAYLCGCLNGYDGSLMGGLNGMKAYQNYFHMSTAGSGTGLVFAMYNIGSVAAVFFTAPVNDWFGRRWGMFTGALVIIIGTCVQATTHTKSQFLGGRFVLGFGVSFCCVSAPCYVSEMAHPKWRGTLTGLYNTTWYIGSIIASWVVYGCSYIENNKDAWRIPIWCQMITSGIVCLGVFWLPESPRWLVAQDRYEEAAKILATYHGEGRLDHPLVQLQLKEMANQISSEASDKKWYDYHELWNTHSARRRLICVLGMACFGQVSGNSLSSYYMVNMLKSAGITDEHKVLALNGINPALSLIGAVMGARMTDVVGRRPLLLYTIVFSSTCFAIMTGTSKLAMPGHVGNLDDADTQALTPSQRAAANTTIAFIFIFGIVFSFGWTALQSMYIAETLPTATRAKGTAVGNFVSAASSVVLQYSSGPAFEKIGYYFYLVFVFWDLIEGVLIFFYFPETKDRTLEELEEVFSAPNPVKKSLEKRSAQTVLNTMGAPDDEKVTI
# T2 sequence (Q7SGN1 entry or part of it): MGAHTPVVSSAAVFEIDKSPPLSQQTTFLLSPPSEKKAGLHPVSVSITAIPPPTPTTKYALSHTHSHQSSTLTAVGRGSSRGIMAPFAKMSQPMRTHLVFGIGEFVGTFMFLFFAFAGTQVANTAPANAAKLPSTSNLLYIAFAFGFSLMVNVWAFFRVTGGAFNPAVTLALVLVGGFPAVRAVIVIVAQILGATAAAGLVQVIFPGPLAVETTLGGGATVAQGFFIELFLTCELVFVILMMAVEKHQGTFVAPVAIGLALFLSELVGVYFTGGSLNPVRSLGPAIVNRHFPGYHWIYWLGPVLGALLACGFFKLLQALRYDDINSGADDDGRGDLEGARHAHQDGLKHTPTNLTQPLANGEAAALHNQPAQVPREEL
# T3 sequence (Q7SCU1 entry or part of it): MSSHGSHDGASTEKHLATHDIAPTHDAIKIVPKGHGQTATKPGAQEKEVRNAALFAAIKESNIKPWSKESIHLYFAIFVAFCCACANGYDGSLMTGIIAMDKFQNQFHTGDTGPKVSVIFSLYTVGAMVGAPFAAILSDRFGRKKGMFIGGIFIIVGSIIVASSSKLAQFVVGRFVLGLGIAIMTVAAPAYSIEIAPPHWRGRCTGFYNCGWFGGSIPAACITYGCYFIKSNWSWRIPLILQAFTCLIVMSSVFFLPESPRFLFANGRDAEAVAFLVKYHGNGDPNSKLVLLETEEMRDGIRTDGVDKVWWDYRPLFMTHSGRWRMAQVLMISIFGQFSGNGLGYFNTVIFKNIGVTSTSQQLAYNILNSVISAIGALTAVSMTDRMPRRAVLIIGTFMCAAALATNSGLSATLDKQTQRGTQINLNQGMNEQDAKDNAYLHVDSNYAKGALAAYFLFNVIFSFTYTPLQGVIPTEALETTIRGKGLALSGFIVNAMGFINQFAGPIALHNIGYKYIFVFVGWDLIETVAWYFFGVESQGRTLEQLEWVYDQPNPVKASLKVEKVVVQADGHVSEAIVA
smiles,measurement,setting,value
OC[C@H]1OC(O)[C@H](O)[C@@H](O)[C@H]1O (stereo partly drawn) [D-galactose],growth of transporter-expressing yeast on the sugar,[1],NCU00809 was found to display transport activity for D-galactose
OCC(O)CO [glycerol],glycerol uptake by N. crassa wild type versus deletion mutant,[2],a significantly reduced uptake rate in the respective deletion mutant
"OC[C@H]1O[C@@H](O[C@H]2[C@H](O)[C@@H](O)C(O)O[C@@H]2CO)[C@H](O)[C@@H](O)[C@H]1O (stereo partly drawn) [lactose, β-D-galactopyranosyl-(1 → 4)-D-glucose]",growth of transporter-expressing yeast on the sugar as sole carbon source,[3],demonstrating that they are plasma membrane permeases that can transport lactose
same,growth of transporter-expressing yeast on the sugar as sole carbon source,[4],demonstrating that they are plasma membrane permeases that can transport lactose
same,growth of transporter-expressing yeast on the sugar as sole carbon source,[5],demonstrating that they are plasma membrane permeases that can transport lactose
